Experimental data: ChEMBL document CHEMBL5380807, “Imidazo[1,2-a]Pyridine Derivatives as Novel Dual-Target Inhibitors of ABCB1 and ABCG2 for Reversing Multidrug Resistance” (J Med Chem, 2023)
Activity calls are given as the source filed them. The rule behind the calls is not given here.

Key:
K562 [1] = test: Cytotoxicity against human K562 cells assessed as decrease in cell survival rate at 5 uM incubated for 72 hrs by MTS assay; type: toxicity, cell-based; conditions: k562, 72 h
K562/A02 [2] = test: Cytotoxicity against human K562/A02 cells overexpressing ABCB1 assessed as decrease in cell survival rate at 5 uM incubated for 72 hrs by MTS assay; type: toxicity, cell-based; conditions: k562/a02, 72 h
K562 [3] = test: Reversal of ABCB1 mediated adriamycin resistance in human K562 cells assessed as reduction in survival rate at 1 uM preincubated for 1 hrs followed by adriamycin addition and measured after 72 hrs by MTS assay; type: functional, cell-based; conditions: time 73.0 hrs
K562 [4] = test: Reversal of ABCB1 mediated adriamycin resistance in human K562 cells assessed as reduction in survival rate at 5 uM preincubated for 1 hrs followed by adriamycin addition and measured after 72 hrs by MTS assay; type: functional, cell-based; conditions: time 73.0 hrs
K562/A02 [5] = test: Reversal of ABCB1 mediated adriamycin resistance in human K562/A02 cells overexpressing ABCB1 assessed as reduction in survival rate at 1 uM preincubated for 1 hrs followed by adriamycin addition and measured after 72 hrs by MTS assay; type: functional
K562/A02 [6] = test: Reversal of ABCB1 mediated adriamycin resistance in human K562/A02 cells overexpressing ABCB1 assessed as reduction in survival rate at 5 uM preincubated for 1 hrs followed by adriamycin addition and measured after 72 hrs by MTS assay; type: functional
[7] = Cytotoxicity against human K562 cells assessed as decrease in cell survival rate incubated for 72 hrs by MTS assay; type: toxicity, cell-based
[8] = Cytotoxicity against human K562/A02 cells overexpressing ABCB1 assessed as decrease in cell survival rate incubated for 72 hrs by MTS assay; type: toxicity, cell-based
K562 [9] = test: Reversal of ABCB1 mediated adriamycin resistance in human K562 assessed as decrease in survival rate at 1.25 to 5 uM preincubated for 1 hrs followed by adriamycin addition and measured after 72 hrs by MTS assay; type: functional, cell-based; conditions: dose 1.25-5 µM, time 73.0 hrs
K562/A02 [10] = test: Reversal of ABCB1 mediated adriamycin resistance in human K562/A02 overexpressing ABCB1 assessed as decrease in survival rate at 1.25 to 5 uM preincubated for 1 hrs followed by adriamycin addition and measured after 72 hrs by MTS assay; type: functional, cell-based; conditions: dose 1.25-5 µM, time 73.0 hrs
K562/A02 [11] = test: Reversal of ABCB1 mediated adriamycin resistance in human K562/A02 overexpressing ABCB1 assessed as decrease in survival rate at 5 uM preincubated for 1 hrs followed by adriamycin addition and measured after 72 hrs by MTS assay; type: functional
[12] = Cytotoxicity against human HEK293 cells assessed as reduction in cell viability incubated for 72 hrs by SRB assay; type: toxicity, cell-based
[13] = Cytotoxicity against human HEK293 cells expressing ABCG2 assessed as reduction in cell viability incubated for 72 hrs by SRB assay; type: toxicity, cell-based
HEK293 [14] = test: Reversal of ABCG2 mediated mitoxantrone resistance in human HEK293 assessed as decrease in survival rate at 1.25 to 5 uM preincubated for 1 hrs followed by mitoxantrone addition and measured after 72 hrs by SRB assay; type: functional, cell-based; conditions: dose 1.25-5 µM, time 73.0 hrs
HEK293 [15] = test: Reversal of ABCG2 mediated mitoxantrone resistance in human HEK293 overexpressing ABCG2 assessed as decrease in survival rate at 1.25 to 5 uM preincubated for 1 hrs followed by mitoxantrone addition and measured after 72 hrs by SRB assay; type: functional, cell-based; conditions: dose 1.25-5 µM, time 73.0 hrs

COc1cc2c(cc1OC)CN(CC(=O)Nc1ccc(-c3cn4ccccc4n3)cc1)CC2
Activity (K562 [1]): Non-Toxic | Activity (K562/A02 [2]): Non-Toxic | Activity (K562 [3]): inactive | Activity (K562 [4]): inactive | Activity (K562/A02 [5]; time 73.0 hrs): Active | Activity (K562/A02 [6]; time 73.0 hrs): Active

COc1ccc(COCc2c(-c3ccc(NC(=O)CN4CCc5cc(OC)c(OC)cc5C4)cc3)nc3ccccn23)cc1
Activity (K562 [1]): Non-Toxic | Activity (K562/A02 [2]): Non-Toxic | Activity (K562 [3]): inactive | Activity (K562 [4]): inactive | Activity (K562/A02 [5]; time 73.0 hrs): Active | Activity (K562/A02 [6]; time 73.0 hrs): Active

COc1ccc(/C=C/C(=O)Nc2ccc(-c3nc4ccccn4c3CN3CCN(c4ccccc4)CC3)cc2)cc1
IC50 at 72 h [7]: > 100 µM | IC50 at 72 h [8]: > 100 µM | Activity (K562 [9]): inactive | Activity (K562/A02 [10]): Active | Activity (K562/A02 [11]): <30% | IC50 at 72 h [12]: 21 µM | IC50 at 72 h [13]: 12.4 µM | Activity (HEK293 [14]): inactive | Activity (HEK293 [15]): Active

O=C1c2c(O)ccc(O)c2C(=O)c2c(NCCNCCO)ccc(NCCNCCO)c21 [MITOXANTRONE]
IC50 at 72 h [12]: 0.04 µM | IC50 at 72 h [13]: 1.72 µM

COc1cc2c(cc1OC)CN(CC(=O)Nc1ccc(-c3nc4ccccn4c3CN3CCOCC3)cc1)CC2
Activity (K562 [1]): Non-Toxic | Activity (K562/A02 [2]): Non-Toxic | Activity (K562 [3]): Active | Activity (K562 [4]): Active | Activity (K562/A02 [5]; time 73.0 hrs): Active | Activity (K562/A02 [6]; time 73.0 hrs): Active

COc1cc2c(cc1OC)CN(CC(=O)Nc1ccc(-c3nc4ccccn4c3CO)cc1)CC2
Activity (K562 [1]): Non-Toxic | Activity (K562/A02 [2]): Non-Toxic | Activity (K562 [3]): inactive | Activity (K562 [4]): inactive | Activity (K562/A02 [5]; time 73.0 hrs): inactive | Activity (K562/A02 [6]; time 73.0 hrs): inactive

COc1cc2c(cc1OC)CN(CC(=O)Nc1ccc(-c3nc4ccccn4c3COCc3ccccc3)cc1)CC2
Activity (K562 [1]): Non-Toxic | Activity (K562/A02 [2]): Non-Toxic | Activity (K562 [3]): inactive | Activity (K562 [4]): inactive | Activity (K562/A02 [5]; time 73.0 hrs): Active | Activity (K562/A02 [6]; time 73.0 hrs): Active

C=CCN(CC=C)CC(=O)Nc1ccc(-c2nc3ccccn3c2CN2CCN(c3ccccc3)CC2)cc1
IC50 at 72 h [7]: > 100 µM | IC50 at 72 h [8]: > 100 µM | Activity (K562 [9]): inactive | Activity (K562/A02 [10]): Active | Activity (K562/A02 [11]): <30% | IC50 at 72 h [12]: 11.8 µM | IC50 at 72 h [13]: 18.5 µM | Activity (HEK293 [14]): inactive | Activity (HEK293 [15]): Active

COc1cc2c(cc1OC)CN(CC(=O)Nc1ccc(-c3nc4ccccn4c3CN3CCC(=O)CC3)cc1)CC2
Activity (K562 [1]): Non-Toxic | Activity (K562/A02 [2]): Non-Toxic | Activity (K562 [3]): inactive | Activity (K562 [4]): inactive | Activity (K562/A02 [5]; time 73.0 hrs): Active | Activity (K562/A02 [6]; time 73.0 hrs): Active

CCN(CC)Cc1c(-c2ccc(NC(=O)CN3CCc4cc(OC)c(OC)cc4C3)cc2)nc2ccccn12
Activity (K562 [1]): Non-Toxic | Activity (K562/A02 [2]): Non-Toxic | Activity (K562 [3]): inactive | Activity (K562 [4]): inactive | Activity (K562/A02 [5]; time 73.0 hrs): Active | Activity (K562/A02 [6]; time 73.0 hrs): Active

COc1cc2c(cc1OC)CN(CC(=O)Nc1ccc(-c3nc4ccccn4c3CNCc3ccccc3)cc1)CC2
Activity (K562 [1]): Non-Toxic | Activity (K562/A02 [2]): 59.82% | Activity (K562 [3]): inactive | Activity (K562 [4]): inactive | Activity (K562/A02 [5]; time 73.0 hrs): Active | Activity (K562/A02 [6]; time 73.0 hrs): Active

COc1cc2c(cc1OC)CN(CC(=O)Nc1ccc(-c3nc4ccccn4c3CN3CCCCC3)cc1)CC2
Activity (K562 [1]): Non-Toxic | Activity (K562/A02 [2]): Non-Toxic | Activity (K562 [3]): Active | Activity (K562 [4]): Active | Activity (K562/A02 [5]; time 73.0 hrs): Active | Activity (K562/A02 [6]; time 73.0 hrs): Active

COc1cc2c(cc1OC)CN(CC(=O)Nc1ccc(-c3nc4ccccn4c3CN(C)C)cc1)CC2
Activity (K562 [1]): Non-Toxic | Activity (K562/A02 [2]): Non-Toxic | Activity (K562 [3]): inactive | Activity (K562 [4]): inactive | Activity (K562/A02 [5]; time 73.0 hrs): Active | Activity (K562/A02 [6]; time 73.0 hrs): Active

COc1cc2c(cc1OC)CN(CC(=O)Nc1ccc(-c3nc4ccccn4c3CN3CCN(c4ccc(OC(F)(F)F)cc4)CC3)cc1)CC2
Activity (K562 [1]): Non-Toxic | Activity (K562/A02 [2]): Non-Toxic | Activity (K562 [3]): inactive | Activity (K562 [4]): inactive | Activity (K562/A02 [5]; time 73.0 hrs): Active | Activity (K562/A02 [6]; time 73.0 hrs): Active

COc1cc2c(cc1OC)CN(CC(=O)Nc1ccc(-c3nc4ccccn4c3CN3CCN(c4ccccc4)CC3)cc1)CC2
Activity (K562 [1]): Non-Toxic | Activity (K562/A02 [2]): Non-Toxic | Activity (K562 [3]): inactive | Activity (K562 [4]): inactive | Activity (K562/A02 [5]; time 73 hrs): 59% | Activity (K562/A02 [6]; time 73 hrs): 33% | IC50 at 72 h [7]: > 100 µM | IC50 at 72 h [8]: > 100 µM | Activity (K562 [9]): inactive | Activity (K562/A02 [10]): Active

COc1cc2c(cc1OC)CN(CC(=O)Nc1ccc(-c3nc4ccccn4c3COCc3ccc(Cl)cc3)cc1)CC2
Activity (K562 [1]): Non-Toxic | Activity (K562/A02 [2]): Non-Toxic | Activity (K562 [3]): Active | Activity (K562 [4]): Active | Activity (K562/A02 [5]; time 73.0 hrs): Active | Activity (K562/A02 [6]; time 73.0 hrs): Active

CC(=O)N1CCN(c2ccc(OCC3COC(Cn4ccnc4)(c4ccc(Cl)cc4Cl)O3)cc2)CC1 (stereo not drawn)
Activity (HEK293 [14]): inactive | Activity (HEK293 [15]): Active

O=C(CCCN1CCN(c2ccccc2)CC1)Nc1ccc(-c2nc3ccccn3c2CN2CCN(c3ccccc3)CC2)cc1
IC50 at 72 h [7]: 3.72 µM | IC50 at 72 h [8]: 7.07 µM | Activity (K562 [9]): Active | Activity (K562/A02 [10]): Active

COc1cc2c(cc1OC)CN(CC(=O)Nc1ccc(-c3nc4ccccn4c3CN3CCc4cc(OC)c(OC)cc4C3)cc1)CC2
Activity (K562 [1]): Non-Toxic | Activity (K562/A02 [2]): Non-Toxic | Activity (K562 [3]): inactive | Activity (K562 [4]): inactive | Activity (K562/A02 [5]; time 73 hrs): 61% | Activity (K562/A02 [6]; time 73 hrs): 39% | IC50 at 72 h [7]: > 100 µM | IC50 at 72 h [8]: > 100 µM | Activity (K562 [9]): inactive | Activity (K562/A02 [10]): Active

COc1cc2c(cc1OC)CN(CC(=O)Nc1ccc(-c3nc4ccccn4c3COCc3ccccc3Cl)cc1)CC2
Activity (K562 [1]): Non-Toxic | Activity (K562/A02 [2]): Non-Toxic | Activity (K562 [3]): inactive | Activity (K562 [4]): inactive | Activity (K562/A02 [5]; time 73.0 hrs): Active | Activity (K562/A02 [6]; time 73.0 hrs): Active

COc1cc2c(cc1OC)CN(Cc1c(-c3ccc(NC(=O)COc4ccccc4C)cc3)nc3ccccn13)CC2
IC50 at 72 h [7]: > 100 µM | IC50 at 72 h [8]: > 100 µM | Activity (K562 [9]): inactive | Activity (K562/A02 [10]): Active

COc1cc2c(cc1OC)CN(CC(=O)Nc1ccc(-c3nc4ccccn4c3CN3CCCC3)cc1)CC2
Activity (K562 [1]): Non-Toxic | Activity (K562/A02 [2]): Non-Toxic | Activity (K562 [3]): inactive | Activity (K562 [4]): inactive | Activity (K562/A02 [5]; time 73.0 hrs): Active | Activity (K562/A02 [6]; time 73.0 hrs): Active

COc1cc2c(cc1OC)CN(CCC(=O)Nc1ccc(-c3nc4ccccn4c3CN3CCN(c4ccccc4)CC3)cc1)CC2
IC50 at 72 h [7]: 3.31 µM | IC50 at 72 h [8]: 13.6 µM | Activity (K562 [9]): Active | Activity (K562/A02 [10]): Active
